ChEMBL document CHEMBL1833829, “Development of 2-substituted-N-(naphth-1-ylmethyl) and N-benzhydrylpyrimidin-4-amines as dual cholinesterase and Aβ-aggregation inhibitors: Synthesis and biological evaluation” (Bioorg Med Chem Lett, 2011)

Experiments:
Cholinesterase [1] = biological target: T1, Cholinesterase (Equus caballus, UniProt P81908)
Description: (§1) Inhibition of equine BuChE by Ellman's method

Cholinesterase [2] = biological target: T1, Cholinesterase; remark: listed apart in the source
Description: as §1

Acetylcholinesterase = Acetylcholinesterase (Homo sapiens, UniProt P22303)
Acetylcholinesterase, sequence (P22303 whole entry): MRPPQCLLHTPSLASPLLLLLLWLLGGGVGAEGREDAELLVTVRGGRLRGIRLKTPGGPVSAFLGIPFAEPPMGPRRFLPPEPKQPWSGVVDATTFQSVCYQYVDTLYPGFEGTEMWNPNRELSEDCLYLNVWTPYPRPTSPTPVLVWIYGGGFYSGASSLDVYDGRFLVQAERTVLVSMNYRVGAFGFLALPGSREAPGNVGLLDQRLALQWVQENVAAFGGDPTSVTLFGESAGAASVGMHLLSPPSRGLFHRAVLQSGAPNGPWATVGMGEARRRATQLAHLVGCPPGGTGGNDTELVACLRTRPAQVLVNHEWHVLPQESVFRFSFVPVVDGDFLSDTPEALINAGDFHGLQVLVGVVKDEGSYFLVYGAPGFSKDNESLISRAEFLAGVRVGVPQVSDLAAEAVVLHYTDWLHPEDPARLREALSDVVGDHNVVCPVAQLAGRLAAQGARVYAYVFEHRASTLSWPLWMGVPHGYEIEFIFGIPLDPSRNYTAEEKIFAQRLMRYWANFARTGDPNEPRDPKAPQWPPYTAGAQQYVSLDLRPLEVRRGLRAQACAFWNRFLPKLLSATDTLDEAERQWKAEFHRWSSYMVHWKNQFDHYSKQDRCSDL
Description: Inhibition of human AChE by Ellman's assay

T1 sequence (P81908 whole entry): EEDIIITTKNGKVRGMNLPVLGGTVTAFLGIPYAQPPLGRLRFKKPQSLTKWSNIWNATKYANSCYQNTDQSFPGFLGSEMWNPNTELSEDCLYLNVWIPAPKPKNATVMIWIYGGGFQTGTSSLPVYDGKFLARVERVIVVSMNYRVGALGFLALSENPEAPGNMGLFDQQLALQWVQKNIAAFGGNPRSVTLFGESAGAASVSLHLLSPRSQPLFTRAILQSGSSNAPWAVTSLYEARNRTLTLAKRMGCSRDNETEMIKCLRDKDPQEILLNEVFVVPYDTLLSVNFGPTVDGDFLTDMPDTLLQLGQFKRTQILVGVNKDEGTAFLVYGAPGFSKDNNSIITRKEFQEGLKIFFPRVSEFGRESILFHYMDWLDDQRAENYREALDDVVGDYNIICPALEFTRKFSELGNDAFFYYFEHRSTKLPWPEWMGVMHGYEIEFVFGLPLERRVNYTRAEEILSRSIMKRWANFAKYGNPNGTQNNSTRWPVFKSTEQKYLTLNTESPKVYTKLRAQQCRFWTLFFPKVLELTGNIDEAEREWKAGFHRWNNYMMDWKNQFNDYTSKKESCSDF

Compound | IC50 (Cholinesterase [1]) [nM] | IC50 (Cholinesterase [2]) [µM] | IC50 (Acetylcholinesterase) [µM]
CC1CCN(c2nccc(NCc3cccc4ccccc34)n2)CC1 | 2200 |  | 
CC(C)N1CCN(c2nccc(NCc3cccc4ccccc34)n2)CC1 |  | 7.6 | 15.8
CC(C)C1CCN(c2nccc(NCc3cccc4ccccc34)n2)CC1 |  | 9.1 | 16.7
CCCN1CCN(c2nccc(NCc3cccc4ccccc34)n2)CC1 |  | 18.1 | 19
c1ccc2c(CNc3ccnc(N4CCN(C5CCCCC5)CC4)n3)cccc2c1 |  | 3.9 | 8
CC(=O)N1CCN(c2nccc(NCc3cccc4ccccc34)n2)CC1 |  | 32.9 | 13.8
CC(C)(C)OC(=O)N1CCN(c2nccc(NCc3cccc4ccccc34)n2)CC1 |  | > 100 | 50.8
c1ccc2c(CNc3ccnc(N4CCNCC4)n3)cccc2c1 |  | 25.4 | 17.5
OCCN1CCN(c2nccc(NCc3cccc4ccccc34)n2)CC1 |  | 17.9 | 9.8
COCCN1CCN(c2nccc(NCc3cccc4ccccc34)n2)CC1 |  | 26.5 | 11.7
CN1CCN(c2nccc(NC(c3ccccc3)c3ccccc3)n2)CC1 |  | 23.8 | 13.7
CC1CCN(c2nccc(NC(c3ccccc3)c3ccccc3)n2)CC1 |  | 33.8 | 32.2
CC(C)N1CCN(c2nccc(NC(c3ccccc3)c3ccccc3)n2)CC1 |  | 9.7 | 20.3
CC(C)C1CCN(c2nccc(NC(c3ccccc3)c3ccccc3)n2)CC1 |  | 87 | 42.5
CCCN1CCN(c2nccc(NC(c3ccccc3)c3ccccc3)n2)CC1 |  | 17.5 | 14.6
c1ccc(C(Nc2ccnc(N3CCN(C4CCCCC4)CC3)n2)c2ccccc2)cc1 |  | 7.6 | 10
CC(=O)N1CCN(c2nccc(NC(c3ccccc3)c3ccccc3)n2)CC1 |  | > 100 | 29
CC(C)(C)OC(=O)N1CCN(c2nccc(NC(c3ccccc3)c3ccccc3)n2)CC1 |  | > 100 | > 100
c1ccc(C(Nc2ccnc(N3CCNCC3)n2)c2ccccc2)cc1 |  | > 100 | 31.3
OCCN1CCN(c2nccc(NC(c3ccccc3)c3ccccc3)n2)CC1 |  | 59.5 | 21.6
COCCN1CCN(c2nccc(NC(c3ccccc3)c3ccccc3)n2)CC1 |  | 28.4 | 39.2
